{"source": "paper doi:10.1101/2023.03.24.534094v2", "about": "(biorxiv, 2023)", "experiment_in_all_cases": "biochemical", "key": {"AAK1": {"molecular_target": "AAK1 (Homo sapiens, UniProt Q2M2I8)", "sequence (Q2M2I8 whole entry)": "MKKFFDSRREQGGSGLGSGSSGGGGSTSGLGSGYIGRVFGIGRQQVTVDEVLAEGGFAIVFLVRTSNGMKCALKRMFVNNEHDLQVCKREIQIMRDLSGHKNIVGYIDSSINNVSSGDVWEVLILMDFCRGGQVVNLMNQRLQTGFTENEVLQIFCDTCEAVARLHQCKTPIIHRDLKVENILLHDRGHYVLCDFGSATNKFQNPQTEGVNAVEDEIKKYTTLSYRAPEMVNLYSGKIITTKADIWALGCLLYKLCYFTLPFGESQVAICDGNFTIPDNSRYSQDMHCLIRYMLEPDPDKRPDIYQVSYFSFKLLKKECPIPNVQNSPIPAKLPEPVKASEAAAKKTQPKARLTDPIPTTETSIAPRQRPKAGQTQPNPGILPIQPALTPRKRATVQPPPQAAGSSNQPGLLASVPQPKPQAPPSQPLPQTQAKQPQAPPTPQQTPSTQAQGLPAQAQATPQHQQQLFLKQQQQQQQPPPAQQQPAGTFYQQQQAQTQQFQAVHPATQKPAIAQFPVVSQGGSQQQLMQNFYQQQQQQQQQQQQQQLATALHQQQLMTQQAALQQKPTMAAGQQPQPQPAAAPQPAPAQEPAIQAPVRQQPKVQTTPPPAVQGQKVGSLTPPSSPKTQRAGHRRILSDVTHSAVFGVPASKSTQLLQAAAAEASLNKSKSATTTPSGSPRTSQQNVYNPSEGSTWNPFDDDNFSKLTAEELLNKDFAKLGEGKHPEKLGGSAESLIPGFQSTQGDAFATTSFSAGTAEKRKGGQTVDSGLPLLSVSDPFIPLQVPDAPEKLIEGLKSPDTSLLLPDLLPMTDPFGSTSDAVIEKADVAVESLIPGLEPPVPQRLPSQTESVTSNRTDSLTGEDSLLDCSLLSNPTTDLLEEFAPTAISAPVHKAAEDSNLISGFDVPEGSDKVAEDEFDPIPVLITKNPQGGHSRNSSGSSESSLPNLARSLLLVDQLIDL"}, "BRD4": {"molecular_target": "BRD4 (Homo sapiens, UniProt O60885)"}, "CK1e": {"molecular_target": "CK1e (Homo sapiens, UniProt P49674)", "sequence (P49674 whole entry)": "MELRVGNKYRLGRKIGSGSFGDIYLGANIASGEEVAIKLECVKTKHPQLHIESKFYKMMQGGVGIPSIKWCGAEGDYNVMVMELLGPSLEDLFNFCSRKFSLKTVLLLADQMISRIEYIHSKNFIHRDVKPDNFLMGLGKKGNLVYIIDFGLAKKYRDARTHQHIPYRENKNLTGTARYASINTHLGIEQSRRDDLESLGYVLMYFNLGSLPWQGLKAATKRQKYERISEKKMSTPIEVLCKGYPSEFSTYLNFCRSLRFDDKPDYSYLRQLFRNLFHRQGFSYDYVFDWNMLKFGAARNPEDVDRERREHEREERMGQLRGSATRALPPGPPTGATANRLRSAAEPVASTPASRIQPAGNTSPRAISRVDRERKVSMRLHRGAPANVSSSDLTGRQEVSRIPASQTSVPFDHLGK"}, "CLK1": {"molecular_target": "CLK1 (Homo sapiens, UniProt P49759)", "sequence (P49759 whole entry)": "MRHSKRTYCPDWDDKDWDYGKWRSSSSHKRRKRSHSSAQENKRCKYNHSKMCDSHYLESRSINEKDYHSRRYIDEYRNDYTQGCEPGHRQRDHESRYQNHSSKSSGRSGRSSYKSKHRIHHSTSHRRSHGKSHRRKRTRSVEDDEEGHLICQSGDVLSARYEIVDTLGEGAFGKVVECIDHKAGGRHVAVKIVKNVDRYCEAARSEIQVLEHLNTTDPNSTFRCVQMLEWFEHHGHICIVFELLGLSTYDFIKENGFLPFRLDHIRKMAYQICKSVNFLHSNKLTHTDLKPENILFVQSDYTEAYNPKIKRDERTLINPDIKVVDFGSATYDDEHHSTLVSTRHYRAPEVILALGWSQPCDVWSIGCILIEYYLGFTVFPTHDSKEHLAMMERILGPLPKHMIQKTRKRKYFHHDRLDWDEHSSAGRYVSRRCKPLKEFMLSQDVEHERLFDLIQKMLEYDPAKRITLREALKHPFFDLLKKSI"}, "CaMK4": {"molecular_target": "T1, CaMK4 (Homo sapiens, UniProt Q16566)", "T1 sequence (Q16566 1-473)": "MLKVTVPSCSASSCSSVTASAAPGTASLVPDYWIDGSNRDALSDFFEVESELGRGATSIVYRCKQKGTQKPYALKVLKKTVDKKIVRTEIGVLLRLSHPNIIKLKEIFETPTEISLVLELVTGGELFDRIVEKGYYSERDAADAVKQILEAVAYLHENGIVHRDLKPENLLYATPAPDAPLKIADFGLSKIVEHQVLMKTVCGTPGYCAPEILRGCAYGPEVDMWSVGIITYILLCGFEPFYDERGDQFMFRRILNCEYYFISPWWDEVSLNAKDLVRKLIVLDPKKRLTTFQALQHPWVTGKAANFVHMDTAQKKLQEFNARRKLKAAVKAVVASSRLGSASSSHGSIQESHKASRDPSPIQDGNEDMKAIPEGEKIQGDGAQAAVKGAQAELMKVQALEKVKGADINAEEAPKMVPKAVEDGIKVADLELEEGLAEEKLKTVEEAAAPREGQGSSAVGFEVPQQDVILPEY"}, "FES": {"molecular_target": "FES (Homo sapiens, UniProt P07332)", "sequence (P07332 whole entry)": "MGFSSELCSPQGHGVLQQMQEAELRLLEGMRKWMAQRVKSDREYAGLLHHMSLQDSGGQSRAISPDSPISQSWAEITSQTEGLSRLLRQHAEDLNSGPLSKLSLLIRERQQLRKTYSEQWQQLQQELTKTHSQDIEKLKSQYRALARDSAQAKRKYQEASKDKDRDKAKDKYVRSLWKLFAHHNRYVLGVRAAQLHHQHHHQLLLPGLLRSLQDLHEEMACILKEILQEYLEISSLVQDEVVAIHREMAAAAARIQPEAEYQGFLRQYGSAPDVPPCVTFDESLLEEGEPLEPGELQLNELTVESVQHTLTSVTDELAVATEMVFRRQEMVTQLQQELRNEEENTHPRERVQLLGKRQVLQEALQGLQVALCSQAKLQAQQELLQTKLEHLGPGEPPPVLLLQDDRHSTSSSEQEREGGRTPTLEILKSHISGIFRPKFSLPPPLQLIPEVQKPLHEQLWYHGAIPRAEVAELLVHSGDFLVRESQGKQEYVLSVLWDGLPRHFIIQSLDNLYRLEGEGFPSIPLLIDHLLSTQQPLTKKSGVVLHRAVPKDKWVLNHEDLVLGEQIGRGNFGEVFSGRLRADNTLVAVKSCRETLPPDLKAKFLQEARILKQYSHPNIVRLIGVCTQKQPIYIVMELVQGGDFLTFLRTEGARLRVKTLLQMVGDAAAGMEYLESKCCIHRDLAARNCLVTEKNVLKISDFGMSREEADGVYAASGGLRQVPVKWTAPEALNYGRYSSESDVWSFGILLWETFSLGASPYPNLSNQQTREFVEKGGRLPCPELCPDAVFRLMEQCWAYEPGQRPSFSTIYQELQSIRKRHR"}, "MAPKAPK2": {"molecular_target": "MAPKAPK2 (Homo sapiens, UniProt P49137)", "sequence (P49137 whole entry)": "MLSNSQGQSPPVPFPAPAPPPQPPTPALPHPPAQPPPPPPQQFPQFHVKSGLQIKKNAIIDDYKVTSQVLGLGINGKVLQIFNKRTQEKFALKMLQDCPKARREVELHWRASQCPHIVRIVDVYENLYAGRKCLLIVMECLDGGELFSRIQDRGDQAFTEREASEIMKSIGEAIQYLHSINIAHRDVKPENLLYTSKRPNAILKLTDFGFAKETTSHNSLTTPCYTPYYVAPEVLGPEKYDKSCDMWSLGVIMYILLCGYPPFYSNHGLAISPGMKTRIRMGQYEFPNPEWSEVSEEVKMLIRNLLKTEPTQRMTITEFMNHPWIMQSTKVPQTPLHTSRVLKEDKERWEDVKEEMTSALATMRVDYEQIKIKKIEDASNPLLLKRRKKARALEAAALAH"}, "NEK2": {"molecular_target": "T2, NEK2 (Homo sapiens, UniProt P51955)", "T2 sequence (P51955 1-445)": "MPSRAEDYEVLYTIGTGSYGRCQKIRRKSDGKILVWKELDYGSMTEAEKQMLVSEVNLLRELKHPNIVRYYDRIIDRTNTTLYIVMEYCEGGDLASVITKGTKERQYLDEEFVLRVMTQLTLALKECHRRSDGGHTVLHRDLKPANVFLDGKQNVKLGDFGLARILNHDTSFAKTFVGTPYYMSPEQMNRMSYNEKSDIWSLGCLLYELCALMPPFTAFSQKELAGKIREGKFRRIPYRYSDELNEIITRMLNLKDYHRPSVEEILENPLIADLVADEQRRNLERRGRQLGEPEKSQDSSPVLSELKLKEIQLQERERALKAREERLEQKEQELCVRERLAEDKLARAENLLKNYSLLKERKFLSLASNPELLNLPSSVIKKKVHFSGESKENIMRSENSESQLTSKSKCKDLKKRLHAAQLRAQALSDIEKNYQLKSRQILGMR"}, "PIM1": {"molecular_target": "PIM1 (Homo sapiens, UniProt P11309)", "sequence (P11309 whole entry)": "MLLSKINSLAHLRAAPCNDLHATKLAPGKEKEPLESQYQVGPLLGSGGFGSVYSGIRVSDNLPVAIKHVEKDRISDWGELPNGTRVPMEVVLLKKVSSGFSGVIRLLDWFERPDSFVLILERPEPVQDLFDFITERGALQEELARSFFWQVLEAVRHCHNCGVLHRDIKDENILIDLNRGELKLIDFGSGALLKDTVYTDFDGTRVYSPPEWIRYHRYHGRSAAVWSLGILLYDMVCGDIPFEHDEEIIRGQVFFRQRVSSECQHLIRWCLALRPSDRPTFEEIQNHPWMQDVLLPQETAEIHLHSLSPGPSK"}, "PIM3": {"molecular_target": "PIM3 (Homo sapiens, UniProt Q86V86)"}, "PLK4": {"molecular_target": "T3, PLK4 (Homo sapiens, UniProt O00444)", "T3 sequence (O00444 1-970)": "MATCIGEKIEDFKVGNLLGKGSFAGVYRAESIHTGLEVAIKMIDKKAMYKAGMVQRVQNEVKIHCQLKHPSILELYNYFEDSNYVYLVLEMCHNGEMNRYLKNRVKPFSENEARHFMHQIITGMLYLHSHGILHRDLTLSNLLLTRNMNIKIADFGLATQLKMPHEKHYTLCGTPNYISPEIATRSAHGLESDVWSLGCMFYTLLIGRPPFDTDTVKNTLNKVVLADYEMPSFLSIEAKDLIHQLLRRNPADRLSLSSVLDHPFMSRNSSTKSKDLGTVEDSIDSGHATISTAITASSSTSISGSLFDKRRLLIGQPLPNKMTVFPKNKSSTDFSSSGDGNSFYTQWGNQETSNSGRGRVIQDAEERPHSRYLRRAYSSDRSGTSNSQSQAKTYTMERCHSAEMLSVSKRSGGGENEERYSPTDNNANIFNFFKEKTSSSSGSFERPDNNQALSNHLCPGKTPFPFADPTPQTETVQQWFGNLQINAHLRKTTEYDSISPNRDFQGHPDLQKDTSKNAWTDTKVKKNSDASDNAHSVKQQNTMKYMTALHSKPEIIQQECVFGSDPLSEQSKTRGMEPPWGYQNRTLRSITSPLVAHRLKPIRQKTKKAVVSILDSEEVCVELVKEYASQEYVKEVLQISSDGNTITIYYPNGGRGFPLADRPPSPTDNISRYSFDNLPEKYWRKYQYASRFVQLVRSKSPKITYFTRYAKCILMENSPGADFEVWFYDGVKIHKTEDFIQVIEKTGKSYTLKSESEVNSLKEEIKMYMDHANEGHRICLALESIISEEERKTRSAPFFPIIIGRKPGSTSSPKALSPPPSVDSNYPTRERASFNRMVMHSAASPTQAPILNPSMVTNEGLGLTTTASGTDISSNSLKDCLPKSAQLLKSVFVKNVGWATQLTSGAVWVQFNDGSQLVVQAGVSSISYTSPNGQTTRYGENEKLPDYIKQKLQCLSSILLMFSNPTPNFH"}}, "note": "Where two headings read alike, the source gives them in different places.", "data": [{"smiles": "CNc1ncc2cc(-c3cc(Br)ccc3Cl)c(=O)n(CCCCN)c2n1", "note": "[compound 6, 8-(4-Aminobutyl)-6-(5-bromo-2-chlorophenyl)-2-(methylamino)pyrido[2,3-d]pyrimidin-7(8H)-one]", "values": [{"measurement": "ΔTm at 10 µM", "setting": "AAK1; read-out: dTm 6", "result": 0.7, "unit": "°C"}, {"measurement": "ΔTm at 10 µM", "setting": "BRD4; read-out: dTm 6", "result": -0.1, "unit": "°C"}, {"measurement": "ΔTm at 10 µM", "setting": "CK1e; read-out: dTm 6", "result": 2.6, "unit": "°C"}, {"measurement": "ΔTm at 10 µM", "setting": "CLK1; read-out: dTm 6", "result": 0.2, "unit": "°C"}, {"measurement": "ΔTm at 10 µM", "setting": "CaMK4; read-out: dTm 6", "result": -0.1, "unit": "°C"}, {"measurement": "ΔTm at 10 µM", "setting": "FES; read-out: dTm 6", "result": 2.5, "unit": "°C"}, {"measurement": "ΔTm at 10 µM", "setting": "MAPKAPK2; read-out: dTm 6", "result": -0.7, "unit": "°C"}, {"measurement": "ΔTm at 10 µM", "setting": "NEK2; read-out: dTm 6", "result": 2, "unit": "°C"}, {"measurement": "ΔTm at 10 µM", "setting": "PIM1; read-out: dTm 6", "result": 1.2, "unit": "°C"}, {"measurement": "ΔTm at 10 µM", "setting": "PIM3; read-out: dTm 6", "result": -0.4, "unit": "°C"}, {"measurement": "ΔTm at 10 µM", "setting": "PLK4; read-out: dTm 6", "result": 0.4, "unit": "°C"}]}, {"smiles": "CNc1ncc2cc(-c3cc(F)ccc3F)c(=O)n(CCCCN)c2n1", "note": "[compound 5, 8-(4-Aminobutyl)-6-(2,5-difluorophenyl)-2-(methylamino)pyrido[2,3-d]pyrimidin-7(8H)-one]", "values": [{"measurement": "ΔTm at 10 µM", "setting": "AAK1; read-out: dTm MR22 (5)", "result": 0.4, "unit": "°C"}, {"measurement": "ΔTm at 10 µM", "setting": "BRD4; read-out: dTm MR22 (5)", "result": -2.8, "unit": "°C"}, {"measurement": "ΔTm at 10 µM", "setting": "CK1e; read-out: dTm MR22 (5)", "result": 2.8, "unit": "°C"}, {"measurement": "ΔTm at 10 µM", "setting": "CLK1; read-out: dTm MR22 (5)", "result": 0.4, "unit": "°C"}, {"measurement": "ΔTm at 10 µM", "setting": "CaMK4; read-out: dTm MR22 (5)", "result": -0.6, "unit": "°C"}, {"measurement": "ΔTm at 10 µM", "setting": "MAPKAPK2; read-out: dTm MR22 (5)", "result": -0.1, "unit": "°C"}, {"measurement": "ΔTm at 10 µM", "setting": "NEK2; read-out: dTm MR22 (5)", "result": 1, "unit": "°C"}, {"measurement": "ΔTm at 10 µM", "setting": "PIM1; read-out: dTm MR22 (5)", "result": 1.1, "unit": "°C"}, {"measurement": "ΔTm at 10 µM", "setting": "PIM3; read-out: dTm MR22 (5)", "result": -0.6, "unit": "°C"}, {"measurement": "ΔTm at 10 µM", "setting": "PLK4; read-out: dTm MR22 (5)", "result": 0.3, "unit": "°C"}]}, {"smiles": "CNc1ncc2cc(-c3ccc(-c4cccc(C)n4)cc3Cl)c(=O)n(CC3OCC(N)CO3)c2n1", "note": "(stereo not drawn) [compound 2, G-5555]", "values": [{"measurement": "dTm G-5555 (2)", "setting": "AAK1; 10 µM, binder", "result": 0.6, "unit": "°C"}, {"measurement": "dTm G-5555 (2)", "setting": "BRD4; 10 µM, binder", "result": -1.1, "unit": "°C"}, {"measurement": "dTm G-5555 (2)", "setting": "CLK1; 10 µM, binder", "result": 0.1, "unit": "°C"}, {"measurement": "dTm G-5555 (2)", "setting": "CaMK4; 10 µM, binder", "result": 0.7, "unit": "°C"}, {"measurement": "dTm G-5555 (2)", "setting": "FES; 10 µM, binder", "result": 4.1, "unit": "°C"}, {"measurement": "dTm G-5555 (2)", "setting": "MAPKAPK2; 10 µM, binder", "result": -0.3, "unit": "°C"}, {"measurement": "dTm G-5555 (2)", "setting": "PIM1; 10 µM, binder", "result": -1.6, "unit": "°C"}, {"measurement": "dTm G-5555 (2)", "setting": "PIM3; 10 µM, binder", "result": -1.8, "unit": "°C"}, {"measurement": "dTm G-5555 (2)", "setting": "PLK4; 10 µM, binder", "result": 3.4, "unit": "°C"}]}, {"smiles": "CNc1ncc2cc(-c3ccccc3Cl)c(=O)n(CCCCN)c2n1", "note": "[compound 4, 8-(4-Aminobutyl)-6-(2-chlorophenyl)-2-(methylamino)pyrido[2,3-d]pyrimidin-7(8H)-one]", "values": [{"measurement": "ΔTm at 10 µM", "setting": "AAK1; read-out: dTm MR21 (4)", "result": 1.6, "unit": "°C"}, {"measurement": "ΔTm at 10 µM", "setting": "BRD4; read-out: dTm MR21 (4)", "result": 0.1, "unit": "°C"}, {"measurement": "ΔTm at 10 µM", "setting": "CK1e; read-out: dTm MR21 (4)", "result": 4.9, "unit": "°C"}, {"measurement": "ΔTm at 10 µM", "setting": "CLK1; read-out: dTm MR21 (4)", "result": -1.2, "unit": "°C"}, {"measurement": "ΔTm at 10 µM", "setting": "CaMK4; read-out: dTm MR21 (4)", "result": 0.8, "unit": "°C"}, {"measurement": "ΔTm at 10 µM", "setting": "FES; read-out: dTm MR21 (4)", "result": 3, "unit": "°C"}, {"measurement": "ΔTm at 10 µM", "setting": "MAPKAPK2; read-out: dTm MR21 (4)", "result": 0.1, "unit": "°C"}, {"measurement": "ΔTm at 10 µM", "setting": "NEK2; read-out: dTm MR21 (4)", "result": 0.5, "unit": "°C"}, {"measurement": "ΔTm at 10 µM", "setting": "PIM1; read-out: dTm MR21 (4)", "result": 0.4, "unit": "°C"}, {"measurement": "ΔTm at 10 µM", "setting": "PIM3; read-out: dTm MR21 (4)", "result": -0.8, "unit": "°C"}, {"measurement": "ΔTm at 10 µM", "setting": "PLK4; read-out: dTm MR21 (4)", "result": 0, "unit": "°C"}]}, {"smiles": "CNc1ncc2cc(-c3cc(Br)ccc3Cl)c(=O)n(C[C@H]3OC[C@H](N)CO3)c2n1", "note": "[compound 7, 8-(((2r,5r)-5-Amino-1,3-dioxan-2-yl)methyl)-6-(5-bromo-2-chlorophenyl)-2-(methylamino)pyrido[2,3-d]pyrimidin-7(8H)-one]", "values": [{"measurement": "ΔTm at 10 µM", "setting": "AAK1; read-out: dTm 7", "result": 0.5, "unit": "°C"}, {"measurement": "ΔTm at 10 µM", "setting": "BRD4; read-out: dTm 7", "result": 0.9, "unit": "°C"}, {"measurement": "ΔTm at 10 µM", "setting": "CLK1; read-out: dTm 7", "result": 0.4, "unit": "°C"}, {"measurement": "ΔTm at 10 µM", "setting": "CaMK4; read-out: dTm 7", "result": 0.1, "unit": "°C"}, {"measurement": "ΔTm at 10 µM", "setting": "FES; read-out: dTm 7", "result": 1.1, "unit": "°C"}, {"measurement": "ΔTm at 10 µM", "setting": "MAPKAPK2; read-out: dTm 7", "result": 0, "unit": "°C"}, {"measurement": "ΔTm at 10 µM", "setting": "NEK2; read-out: dTm 7", "result": 2.1, "unit": "°C"}, {"measurement": "ΔTm at 10 µM", "setting": "PIM1; read-out: dTm 7", "result": 0.6, "unit": "°C"}, {"measurement": "ΔTm at 10 µM", "setting": "PIM3; read-out: dTm 7", "result": 0.9, "unit": "°C"}, {"measurement": "ΔTm at 10 µM", "setting": "PLK4; read-out: dTm 7", "result": 0.4, "unit": "°C"}]}]}
